Biological target: T1, Human FXRα Ligand Binding Domain (Homo sapiens, UniProt Q96RI1)
T1 construct: polyhistidine (pRSET-A vector) (N); made in house; host or cells: E. coli BL21 (DE3), pRSET-A vector
T1 sequence (Q96RI1 237-472 isoform Q96RI1-2): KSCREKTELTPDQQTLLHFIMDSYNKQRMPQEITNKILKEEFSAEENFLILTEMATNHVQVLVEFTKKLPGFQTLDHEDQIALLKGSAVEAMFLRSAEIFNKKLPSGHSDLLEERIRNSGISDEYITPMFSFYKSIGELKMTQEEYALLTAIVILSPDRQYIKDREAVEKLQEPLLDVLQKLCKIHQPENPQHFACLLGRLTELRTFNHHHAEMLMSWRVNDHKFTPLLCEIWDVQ
Assay: FXR Cofactor Binding Assay (FXR LBD / SRC-1 peptide, time resolved fluorescence)
Conditions: FXRα LBD with biotinylated SRC-1 (LCD2, 676-700) peptide
Excerpt: Determination of a ligand mediated cofactor peptide interaction to quantify ligand binding to the nuclear receptor Farnesoid X Receptor (FXR). The method measures the ability of putative ligands to modulate the interaction between the purified bacterial expressed FXRα ligand binding domain (LBD) and a synthetic biotinylated peptide based on residues 676-700 of steroid receptor coactivator-1 (SRC-1) (LXXLL-containing domain-2 where L is the amino acid leucine and X indicates any other amino acid (LCD2), 676-700). The sequence of the SRC-1 peptide used is as published in Iannone, M. A., et al., 2001 Cytometry 44:326-337 where the N-terminus was biotinylated (B) and the C-terminus was amidated. Detection of the associated complex was measured by time resolved fluorescence (TRF). The purified LBD of FXR was labeled with biotin then mixed with stoichiometric amounts of allophycocyanin (APC) labeled streptavidin (Molecular Probes). The biotinylated peptide was then mixed with a ½ stoichiometric amount of europium labeled streptavidin (Wallac Inc). Each was then blocked with a 5 fold excess of biotin and allowed to equilibrate for 15 min. Equimolar amounts of receptor and peptide were mixed together and were allowed to equilibrate for at least 30 min prior to the addition to either a variable or constant concentrations of the sample for which the affinity is to be determined. After equilibration, the time-resolved fluorescent signal was quantitated using a fluorescent plate reader. The affinity of the test compound was estimated from a plot of fluorescence versus concentration of test compound added.
A basal level of FXR: peptide formation is observed in the absence of added ligand. Ligands that promote the complex formation induce a concentration-dependent increase in time-resolved fluorescent signal. Compounds which bind equally well to both monomeric FXR and to the FXR: peptide complex would be expected to give no change in signal, whereas ligands which bind preferentially to the monomeric receptor would be expected to induce a concentration-dependent decrease in the observed signal.
Human FXRα Ligand Binding Domain (FXRα LBD) was expressed in E. coli strain BL21 (DE3) as an amino-terminal polyhistidine tagged fusion protein. Expression was under the control of an isopropyl-13-D-thiogalactopyranoside (IPTG) inducible T7 promoter. DNA encoding this recombinant protein is subcloned into the pRSET-A expression vector (Invitrogen). The coding sequence of Human FXRα LBD was derived from Genbank accession number U 68233 (amino acids 237 to 472).
Routinely, 30-40 g cell paste (equivalent to 2-3 liters of the fermentation batch) was resuspended in 200-250 mL Tris buffered saline (TBS), pH 7.2 (25 mM Tris-hydroxymethylamino methane (Tris), 150 mM sodium chloride). Cells were lysed by passing 3 times through a French Press and cell debris was removed by centrifugation (30 minutes, 20,000×gravity, 4° C.). The cleared supernatant was filtered through course pre-filters, and TBS, pH 7.2, 500 mM imidazole was added to obtain a final imidazole concentration of 50 mM. This lysate was loaded onto a column (6×8 cm) packed with Sepharose [Ni^|| charged]Chelation resin (Pharmacia) and pre-equilibrated with TBS pH 7.2/50 mM imidazole. After washing to baseline absorbance with equilibration buffer, the column was washed with one column volume of TBS pH 7.2 containing 90 mM imidazole. FXRα LBD was eluted directly with 365 mM imidazole. Column fractions were pooled and dialyzed against TBS, pH 7.2, containing 0.5 mM EDTA and 5 mM DTT. The dialyzed protein sample was concentrated using Centri-prep 10 K (Amicon) and subjected to size exclusion, using a column (3×90 cm) packed with Sepharose S-75 resin (Pharmacia) pre-equilibrated with TBS, pH 7.2, containing 0.5 mM ethylene diamine tetraacetic acid (EDTA) and 5 mM dithiothreitol (DTT). […]

SMILES	Activity (pEC50)
CC(C)c1onc(-c2c(Cl)cccc2Cl)c1COc1ccc(-c2ccc3nc(C(=O)O)ccc3c2)cc1 [Example 1h, Potassium 6-[4-({[3-(2,6-Dichlorophenyl)-5-(1-methylethyl)-4-isoxazolyl]methyl}oxy)phenyl]-2-quinolinecarboxylic Acid]	++ (++ indicates a pEC50 6-6.99)
CC(C)c1onc(-c2c(Cl)cccc2Cl)c1COc1ccc(-c2ccc3nc(C(=O)O)ccc3c2)cc1 [Example 1i, Sodium 6-[4-({[3-(2,6-dichlorophenyl)-5-(1-methylethyl)-4-isoxazolyl]methyl}oxy)phenyl]-2-quinolinecarboxylate]	++ (++ indicates a pEC50 6-6.99)

Same assay, conditions: FXRα LBD with biotinylated SRC-1 (LCD2, 676-700) peptide, read-out: Activity (pEC50) (converted)

SMILES	EC50
CC(C)c1onc(-c2c(Cl)cccc2Cl)c1COc1ccc(-c2ccc3nc(C(=O)O)ccc3c2)cc1 [Example 1g, 6-[4-({[3-(2,6-Dichlorophenyl)-5-(1-methylethyl)-4-isoxazolyl]methyl}oxy)phenyl]-2-quinolinecarboxylic acid]	0.102 to 1 µM
CC(C)c1onc(-c2c(Cl)cccc2Cl)c1COc1ccc(-c2ccc3cc(C(=O)O)cnc3c2)cc1 [Example 2, 7-[4-({[3-(2,6-Dichlorophenyl)-5-(1-methylethyl)-4-isoxazolyl]methyl}oxy)phenyl]-3-quinolinecarboxylic acid]	0.102 to 1 µM
CC(C)c1onc(-c2c(Cl)cccc2Cl)c1COc1ccc(-c2ccc3c(C(=O)O)cc(C(=O)O)nc3c2)cc1 [Example 3, 7-[4-({[3-(2,6-Dichlorophenyl)-5-(1-methylethyl)-4-isoxazolyl]methyl}oxy)phenyl]-2,4-quinolinedicarboxylic acid]	0.102 to 1 µM
CC(C)c1onc(-c2c(Cl)cccc2Cl)c1COc1ccc(-c2ccc3c(C(=O)O)ccnc3c2)cc1 [Example 4, 7-[4-({[3-(2,6-Dichlorophenyl)-5-(1-methylethyl)-4-isoxazolyl]methyl}oxy)phenyl]-4-quinolinecarboxylic acid]	0.102 to 1 µM
O=C(O)c1ccc2cc(-c3ccc(OCc4c(-c5c(Cl)cccc5Cl)noc4C4CCCC4)cc3)ccc2n1 [Example 6, 6-[4-({[5-Cyclopentyl-3-(2,6-dichlorophenyl)-4-isoxazolyl]methyl}oxy)phenyl]-2-quinolinecarboxylic acid]	0.102 to 1 µM
O=C(O)c1ccc2cc(-c3ccc(OCc4c(-c5c(Cl)cccc5Cl)noc4C4CCC4)cc3)ccc2n1 [Example 7, 6-[4-({[5-Cyclobutyl-3-(2,6-dichlorophenyl)-4-isoxazolyl]methyl}oxy)phenyl]-2-quinolinecarboxylic acid]	0.102 to 1 µM
O=C(O)c1ccc2cc(-c3ccc(OCc4c(-c5c(Cl)cncc5Cl)noc4C4CCC4)cc3)ccc2n1 [Example 8]	0.102 to 1 µM
O=C(O)c1cc2ccc(-c3ccc(OCc4c(-c5c(Cl)cncc5Cl)noc4C4CCC4)cc3)cc2cn1 [Example 9, 7-[4-({[5-Cyclobutyl-3-(3,5-dichloro-4-pyridinyl)-4-isoxazolyl]methyl}oxy)phenyl]-3-isoquinolinecarboxylic acid]	0.102 to 1 µM
O=C(O)c1cc2ccc(-c3ccc(OCc4c(-c5c(Cl)cccc5Cl)noc4C4CC4)cc3)cc2cn1 [Example 10, 7-[4-({[5-Cyclopropyl-3-(2,6-dichlorophenyl)-4-isoxazolyl]methyl}oxy)phenyl]-3-isoquinolinecarboxylic acid]	0.102 to 1 µM
O=C(O)c1ccc2cc(-c3ccc(OCc4c(-c5c(Cl)cccc5Cl)noc4C4CC4)cc3)ccc2n1 [Example 11, 6-[4-({[5-Cyclopropyl-3-(2,6-dichlorophenyl)-4-isoxazolyl]methyl}oxy)phenyl]-2-quinolinecarboxylic acid]	0.102 to 1 µM
O=C(O)c1ccc2cc(-c3ccc(OCc4c(-c5c(Cl)cncc5Cl)noc4C4CC4)cc3)ccc2n1 [Example 12, 6-[4-({[5-Cyclopropyl-3-(3,5-dichloro-4-pyridinyl)-4-isoxazolyl]methyl}oxy)phenyl]-2-quinolinecarboxylic acid]	0.102 to 1 µM
